Measurements: US20260294883A1, “PHARMACEUTICAL COMPOSITION FOR THE TREATMENT OF POST-TRAUMATIC STRESS SYNDROME” (KINNOV THERAPEUTICS, priority 2022, published 2026)
Structures can show the parent of a compound that is named as a salt.

Key:
[1] = Azevedo et al., Neuropharmacology 164 (2020) 107912; cited from earlier work
[2] = conditioned fear test, Example 3 (comparison with paroxetine); assay type: in vivo, rodents; conditions: for Freezing index Day 1 / Freezing index Day 3 / Freezing index Day 4: n = 10; for Freezing index Day 1: witnesses 53.3 ± 5.7; for Freezing index Day 3: witnesses 38.1 ± 8.7; for Freezing index Day 4: Day 4, treatment stopped after day 3, witnesses 56.2 ± 9.8
Method: (§1) The conditioned fear test in rodents is recognized as a relevant preclinical model for the study of post-traumatic stress disorders.
(§2) During this test, animals are placed for a 4.5-minute conditioning session in a square box with a stainless steel mesh floor connected to a shock generator.
(§3) A conditioned stimulus (CS) consisting of a sound (80 dB, 2800 Hz, 30 seconds) is presented twice (at 1.5 min and then at 3.5 min).
(§4) An unconditioned stimulus consisting of an electric shock to the paws is delivered at the end of each CS (2 seconds, 0.6 mA).
(§5) The animals were then subjected to memory test sessions of the stressful event on different days after the session of packaging. The sessions of test of memorization (duration of 6 min) comprise a first period of 3 minutes without none CS presentation (period CS−) followed by a second 3 minute period during which the CS is presented (period CS+).
(§6) The sound stimulus alone triggers conditioned fear behavior. In rodents, this behavior is manifested by a prostrate attitude, an immobility behavior (i.e. «freezing») that is distinguished from the animal's exploratory behavior when placed in an enclosure for a short period.
(§7) The analyzed data are the time of immobility during the period CS− and during the period CS+. The freezing index is defined as the difference in immobility time between the period with the sound stimulus and the period without the sound. Therefore, the higher this index, the greater the post-traumatic stress state.
(§8) The «sham» group received no shock. The treatments were administered immediately after the conditioning session, and then 30 minutes before each conditioned fear session (no shock, but with the conditioned stimulus).
(§9) This test measures the effect of stress and its environment and its memorization (i.e. extinction).
The protocol is identical to that of Example 1 above. In this example, the conditioned fear sessions and the freezing measurement are carried out on days 1, 3 and 4 after the conditioning session. The treatment is stopped after day 3, so that during the 4th observation session, no treatment is administered.

[3] = conditioned fear test, Example 1 (freezing index 3 days after conditioning); assay type: in vivo, rodents; conditions: for p (freezing index, versus control group) / Freezing index / Freezing index, % vs witness: 3 days after conditioning, n = 10; for Freezing index: Mean ± SEM, witnesses 62.12 ± 9.93; for Freezing index, % vs witness: witnesses 100.00
Method: as §1, §2, §3, §4, §5, §6, §7, §8, §9

COc1ccccc1N1CCN(CCn2cnc3ccccc3c2=O)CC1 [ACH-000029]
efficacy versus prazosin alone [1]: more effective than prazosin alone

Fc1ccc([C@@H]2CCNC[C@H]2COc2ccc3c(c2)OCO3)cc1 [Paroxetine]
Freezing index Day 1 ([2]; 4 mg/kg): 64.5 s
Freezing index Day 3 ([2]; 4 mg/kg): 44.3 s
Freezing index Day 4 ([2]; 4 mg/kg): 38.9 s
Freezing index Day 1 ([2]; 8 mg/kg): 51.3 s
Freezing index Day 3 ([2]; 8 mg/kg): 33.1 s
Freezing index Day 4 ([2]; 8 mg/kg): 50.3 s
effect on the memory component and impact of the stressful event / anxious reaction, in words ([2]; Example 3 conclusion): no significant effect

COc1cc2nc(N3CCN(C(=O)c4ccco4)CC3)nc(N)c2cc1OC [Prazosin, 2-[4-(2-furoyl)piperazin-1-yl]-6,7-dimethoxyquinazolin-4-amine]
p (freezing index, versus control group) ([3]; 0.5 mg/kg): ns
Freezing index ([3]; 0.5 mg/kg): 41.97 ± 5.82 s
Freezing index, % vs witness ([3]; 0.5 mg/kg): 67.57%
p (freezing index, versus control group) ([3]; 1 mg/kg): ns
Freezing index ([3]; 1 mg/kg): 35.29 ± 12.22 s
Freezing index, % vs witness ([3]; 1 mg/kg): 56.80%
effect on post-traumatic stress syndrome, in words ([3]; Example 1 conclusion, conditioned fear test): does not allow the treatment of post-traumatic stress syndrome

CN1CCC(=C2c3ccccc3C=Cc3ccccc32)CC1 [Cyproheptadine, 4-(5-H-dibenzo[a,d]cyclohepten-5-ylidene)-1-methylpiperidine hydrochloride]
p (freezing index, versus control group) ([3]; 0.5 mg/kg): ns
Freezing index ([3]; 0.5 mg/kg): 38.68 ± 5.84 s
Freezing index, % vs witness ([3]; 0.5 mg/kg): 62.28%
